# Results reported in US8618133B2, “Aralkyl alcohol pyridine derivative compounds and the use thereof as medicaments for treating depression” (priority 2008, dated 2013).
# Like-named read-outs stand apart in the source and are kept apart here.
# Tests used:
# [1] = target: T1, reuptake of norepinephrine (NA) by brain synaptosomes (Rattus norvegicus, UniProt Q63380); test: [3H]NA reuptake by rat brain synaptosomes; format: biochemical; conditions: for inhibiting activity on the reuptake of NA (in words): concentration 10 μmol/L, effectiveness equivalent to venlafaxine and DOV21947; for Inhibition of reuptake of NA / inhibition at 100 µM: rat prefrontal cortex synaptosomes, 0.1 mmol/L for control drug and drug to be detected
# T1 construct: taking prefrontal cortex for the [^3H]5-HT and [^3H]NA reuptake experiment; from tissue; host or cells: rat brain prefrontal cortex synaptosomes
# T1 sequence (Q63380 1-617): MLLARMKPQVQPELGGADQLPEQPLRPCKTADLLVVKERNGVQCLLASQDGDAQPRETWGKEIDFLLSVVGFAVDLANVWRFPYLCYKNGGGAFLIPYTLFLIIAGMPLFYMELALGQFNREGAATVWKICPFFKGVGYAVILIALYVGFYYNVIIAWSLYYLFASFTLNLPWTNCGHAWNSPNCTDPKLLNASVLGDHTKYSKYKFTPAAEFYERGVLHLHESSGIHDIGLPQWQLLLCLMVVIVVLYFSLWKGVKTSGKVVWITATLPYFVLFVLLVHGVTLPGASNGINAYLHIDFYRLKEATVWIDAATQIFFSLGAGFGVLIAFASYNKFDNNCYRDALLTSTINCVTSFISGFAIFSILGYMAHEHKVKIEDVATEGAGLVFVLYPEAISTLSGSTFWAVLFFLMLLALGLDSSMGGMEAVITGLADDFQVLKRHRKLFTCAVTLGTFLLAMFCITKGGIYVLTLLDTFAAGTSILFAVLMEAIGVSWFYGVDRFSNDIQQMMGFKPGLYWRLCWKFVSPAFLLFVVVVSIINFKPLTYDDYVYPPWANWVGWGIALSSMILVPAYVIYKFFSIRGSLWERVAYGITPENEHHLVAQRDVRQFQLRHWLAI
# [2] = target: T2, reuptake of 5-serotonin (5-HT) by brain synaptosomes (Rattus norvegicus, UniProt P31652); test: [3H]5-HT reuptake by rat brain synaptosomes; format: biochemical; conditions: for inhibiting activity on the reuptake of 5-HT (in words): concentration 10 μmol/L, effectiveness equivalent to venlafaxine and DOV21947; for Inhibition of reuptake of 5-HT: rat prefrontal cortex synaptosomes, 0.1 mmol/L for control drug and drug to be detected
# T2 construct: taking prefrontal cortex for the [^3H]5-HT and [^3H]NA reuptake experiment; from tissue; host or cells: rat brain prefrontal cortex synaptosomes
# T2 sequence (P31652 whole entry): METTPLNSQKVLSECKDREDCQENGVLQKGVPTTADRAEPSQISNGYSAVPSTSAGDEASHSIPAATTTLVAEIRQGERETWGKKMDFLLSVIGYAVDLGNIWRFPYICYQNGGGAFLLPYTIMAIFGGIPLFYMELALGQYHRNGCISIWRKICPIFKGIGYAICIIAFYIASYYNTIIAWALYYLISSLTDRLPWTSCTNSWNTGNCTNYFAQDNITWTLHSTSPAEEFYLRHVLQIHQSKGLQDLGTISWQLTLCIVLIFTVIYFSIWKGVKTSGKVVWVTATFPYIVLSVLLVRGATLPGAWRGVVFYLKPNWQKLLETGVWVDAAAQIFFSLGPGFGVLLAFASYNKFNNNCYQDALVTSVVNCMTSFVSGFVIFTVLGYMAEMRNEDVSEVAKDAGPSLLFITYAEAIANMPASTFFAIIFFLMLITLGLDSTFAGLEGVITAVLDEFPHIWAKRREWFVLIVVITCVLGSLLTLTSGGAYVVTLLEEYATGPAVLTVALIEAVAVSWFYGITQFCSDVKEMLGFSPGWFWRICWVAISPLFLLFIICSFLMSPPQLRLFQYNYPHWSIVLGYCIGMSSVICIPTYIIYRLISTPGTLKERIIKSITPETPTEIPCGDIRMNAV
# [3] = target: T3, reuptake of dopamine (DA) by brain synaptosomes (Rattus norvegicus, UniProt P23977); test: [3H]DA reuptake by rat brain synaptosomes; format: biochemical; conditions: for inhibiting activity on the reuptake of DA (in words): concentration 10 μmol/L, effectiveness equivalent to venlafaxine and DOV21947; for Inhibition of reuptake of DA / inhibition at 100 µM: rat striatum synaptosomes, 0.1 mmol/L for control drug and drug to be detected
# T3 construct: taking striatum for the [^3H]DA reuptake experiment; from tissue; host or cells: rat brain striatum synaptosomes
# T3 sequence (P23977 whole entry): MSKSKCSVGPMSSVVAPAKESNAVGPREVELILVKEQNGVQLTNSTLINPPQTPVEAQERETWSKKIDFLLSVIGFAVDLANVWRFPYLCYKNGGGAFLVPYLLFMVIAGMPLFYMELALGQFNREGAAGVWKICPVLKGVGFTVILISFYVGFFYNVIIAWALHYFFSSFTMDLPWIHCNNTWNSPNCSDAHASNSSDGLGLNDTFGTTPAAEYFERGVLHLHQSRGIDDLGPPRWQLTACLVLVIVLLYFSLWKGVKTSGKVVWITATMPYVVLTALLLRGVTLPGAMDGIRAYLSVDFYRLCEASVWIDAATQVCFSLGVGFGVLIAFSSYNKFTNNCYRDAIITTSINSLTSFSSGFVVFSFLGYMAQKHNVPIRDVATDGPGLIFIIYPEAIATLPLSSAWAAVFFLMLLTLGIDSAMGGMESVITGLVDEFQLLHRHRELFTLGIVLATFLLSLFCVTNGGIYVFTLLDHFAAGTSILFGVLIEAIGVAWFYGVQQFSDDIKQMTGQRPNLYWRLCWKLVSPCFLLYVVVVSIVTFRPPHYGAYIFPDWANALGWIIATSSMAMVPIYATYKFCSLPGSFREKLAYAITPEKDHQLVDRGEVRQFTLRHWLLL
# mice [4] = test: Acute toxicity, single dosage LD50 to mice; format: in vivo; conditions: Bliss statistics, preliminary screening
# [5] = test system: Salmonella typhimurium histidine auxotroph mutant TA97, TA98, TA100 and TA102; format: cell-based
# Source text: Strains: Salmonella typhimurium histidine auxotroph mutant TA97, TA98, TA100 and TA102.
# The experimental method: the method reported in Maron D M et al: (1983) Mutay Res. 113, 173-216 is used;
# The experimental result: the experiment comprises two parts: −S9 and +S9.
# mice [6] = test: forced swimming test of mice (immobility); format: in vivo; conditions: for Immobility time: mice, swimming test
SMILES,inhibiting activity on the reuptake of NA (in words) [1],Inhibition of reuptake of NA [1],inhibiting activity on the reuptake of 5-HT (in words) [2],Inhibition of reuptake of 5-HT [2],inhibiting activity on the reuptake of DA (in words) [3],Inhibition of reuptake of DA [3],other results
"COc1ccc2cc([C@@H](O)[C@H](C)N3CCC(Cc4ccccc4)CC3)ccc2c1Cl [Compound V-2, Erythro-4-benzyl-N-[1-methyl-2-hydroxy-2-(5-chloro-6-methoxynaphthalene-2-yl)]ethylpiperidine]",stronger inhibiting activity,65.3 ± 6.7,stronger inhibiting activity,105.6 ± 0.9,stronger inhibiting activity,93.1 ± 2.0,
"COc1ccc2cc([C@@H](O)[C@H](C)N3CCC(O)(Cc4ccccc4)CC3)ccc2c1Cl [Compound V-14, Erythro-4-benzyl-4-hydroxy-N-[1-methyl-2-hydroxy-2-(5-chloro-6-methoxynaphthalene-2-yl)]ethylpiperidine]",stronger inhibiting activity,93.0 ± 20.8,stronger inhibiting activity,94.9 ± 1.2,stronger inhibiting activity,91.0 ± 0.9,"LD50 (mice [4]): 1150 mg/kg; bacteriostatic effect ([5]; 5000 μg/dish, TA97, S9 added testing system): have bacteriostatic effect; bacteriostatic effect ([5]; 5000 μg/dish, non-S9 testing system): have bacteriostatic effect; Ames test, reverse mutation ([5]; all tested dosages, with or without S9): negative; bacteriostatic effect ([5]; other dosages, all strains): do nut have a bacteriostatic effect; in vivo anti-depression activity (in words) (mice [6]; forced swimming test of mice, effect similar to venlafaxine): strong in vivo anti-depression activity; Immobility time (mice [6]; dosage 6.9 mg/kg): 52.8 ± 32.0 s; Immobility time (mice [6]; dosage 13.8 mg/kg): 82.1 ± 62.0 s; Immobility time (mice [6]; dosage 27.6 mg/kg): 74.9 ± 37.8 s"
"COc1ccc2cc(C(O)CCN3CCC(=Cc4ccccc4)CC3)ccc2c1Cl (centres unmarked) [Compound V-32, 4-benzyl-methylene-N-[3-hydroxy-3-(5-chloro-6-methoxynaphthalene-2-yl)]propylpiperidine]",stronger inhibiting activity,36.6 ± 19.1,stronger inhibiting activity,104.4 ± 2.0,stronger inhibiting activity,92.4 ± 7.6,
"COc1ccc2cc(C(O)C(C)N3CCC(=Cc4ccc(F)cc4)CC3)ccc2c1Cl (centres unmarked) [Compound V-34, 4-(4-fluorobenzyl)-methylene-N-[1-methyl-2-hydroxy-2-(5-chloro-6-methoxynaphthalene-2-yl)]ethyl-piperidine]",,18.8 ± 13.4,,106.3 ± 2.3,,99.1 ± 4.3,
"COc1ccc2cc(C(O)C(C)N3CCC(=Cc4ccccc4)CC3)ccc2c1Cl (centres unmarked) [Compound V-38, 4-benzyl-methylene-N-[1-methyl-2-hydroxy-2-(5-chloro-6-methoxynaphthalene-2-yl)]ethyl-piperidine]",stronger inhibiting activity,87.4 ± 5.5,stronger inhibiting activity,107.0 ± 0.5,stronger inhibiting activity,99.6 ± 2.9,
"COc1ccc2cc([C@@H](O)[C@H](C)N3CC=C(Cc4ccccc4)CC3)ccc2c1Cl [Compound V-40, Erythro-4-benzyl-N-[1-methyl-2-hydroxy-2-(5-chloro-6-methoxynaphthalene-2-yl)]ethyl-1,2,3,6-tetrahydropyridine]",,62.6 ± 15.3,,99.5 ± 1.6,,50.7 ± 21.8,
"COc1ccc2cc([C@@H](O)[C@H](C)N3CCC(OCc4ccccc4)CC3)ccc2c1Cl [Compound V-50, Erythro-4-benzyloxy-N-[1-methyl-2-hydroxy-2-(5-chloro-6-methoxynaphthalene-2-yl)]ethylpiperidine]",,41.8 ± 7.3,,91.8 ± 1.6,,23.1 ± 16.8,
"Clc1ccc([C@]23CNC[C@H]2C3)cc1Cl [DOV 21947, reference compound]",,,,,,,inhibition at 100 µM [1]: 61.9 ± 6%; inhibition at 100 µM ([2]; read-out: Inhibition of reuptake of 5-HT): 109 ± 3.8%; inhibition at 100 µM [3]: 104 ± 4.2%
"COc1ccc(C(CN(C)C)C2(O)CCCCC2)cc1 (centres unmarked) [venlafaxine, reference compound]",,,,,,,inhibition at 100 µM [1]: 46.4 ± 4.6%; inhibition at 100 µM [3]: 48.6 ± 4.1%; Immobility time (mice [6]; dosage 4.56 mg/kg): 57.1 ± 37.8 s; Immobility time (mice [6]; dosage 9.12 mg/kg): 77.4 ± 47.2 s; Immobility time (mice [6]; dosage 18.24 mg/kg): 80.8 ± 46.8 s
